Results published in PubChem BioAssay (NCI).
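Briefly, cells in 96-well plates were exposed to five compound concentrations for 48 h, and endpoints were estimated by linear interpolation. Abbreviation: GI50, concentration required for 50% inhibition of growth. TGI denotes the concentration required for complete inhibition of growth.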

Legend:
Assay in all cases: NCI-60 cell line screen, 48 h
K-562 leukemia = test system: K-562 leukemia
SK-MEL-2 melanoma = test system: SK-MEL-2 melanoma
UACC-257 melanoma = test system: UACC-257 melanoma
786-0 renal = test system: 786-0 renal
LOX IMVI melanoma = test system: LOX IMVI melanoma
SF-539 CNS = test system: SF-539 CNS
HCT-116 colon = test system: HCT-116 colon
SK-OV-3 ovarian = test system: SK-OV-3 ovarian
SK-MEL-5 melanoma = test system: SK-MEL-5 melanoma
ACHN renal = test system: ACHN renal

Row | SMILES | GI50 (K-562 leukemia) | TGI (K-562 leukemia) | GI50 (SK-MEL-2 melanoma) | TGI (SK-MEL-2 melanoma) | GI50 (UACC-257 melanoma) | TGI (UACC-257 melanoma) | GI50 (786-0 renal) | TGI (786-0 renal) | GI50 (LOX IMVI melanoma) | TGI (LOX IMVI melanoma) | GI50 (SF-539 CNS) | TGI (SF-539 CNS) | GI50 (HCT-116 colon) | TGI (HCT-116 colon) | GI50 (SK-OV-3 ovarian) | TGI (SK-OV-3 ovarian) | GI50 (SK-MEL-5 melanoma) | TGI (SK-MEL-5 melanoma) | GI50 (ACHN renal) | TGI (ACHN renal)
1 | Nc1ccc(/C=C/C(=O)NCc2cc3cc(-c4ccc(C(=O)N5CCC(F)(F)CC5)cc4)cc(-c4ccc(F)cc4)c3o2)cn1 | 0.356 µM | > 100 µM | > 100 µM | > 100 µM | > 100 µM | > 100 µM | 40.3 µM | > 100 µM | > 77.5 µM | > 100 µM | 0.118 µM | > 100 µM | 0.0491 µM | > 100 µM | > 100 µM | > 100 µM | 14.2 µM | > 100 µM | 83.9 µM | > 100 µM
2 | COc1ccc(OC)c(Cn2cc3c(c2-c2ccccc2)CCc2cnoc2-3)c1 | 2.67 µM | > 100 µM | 3.71 µM | 59.2 µM | 30.7 µM | > 100 µM | 6.09 µM | > 100 µM | 4.92 µM | > 100 µM | 4.24 µM | 56.9 µM | 4.04 µM | > 100 µM | 7.48 µM | > 100 µM | 3.7 µM | 40.3 µM | 6.89 µM | > 100 µM
3 | C/C(=N\NC(=O)CC#N)c1c(O)cc(C)oc1=O |  | > 100 µM |  | > 100 µM |  | > 100 µM |  | > 100 µM |  | > 100 µM |  | > 100 µM |  | > 100 µM |  | > 100 µM |  | > 100 µM |  | > 100 µM
4 | O=[N+]([O-])c1ccc(-c2ccc(-c3csc(Nc4ccccc4)n3)o2)cc1 |  | 32.1 µM |  | 36.4 µM |  | 33.3 µM |  | 30.9 µM |  | 34.8 µM |  | 33.9 µM |  | 47 µM |  | > 100 µM |  | 40.1 µM |  | 31.1 µM
5 | COC(=O)C(/C(=N\O)C(=O)Nc1cccc(Cl)c1C)c1cnc2ccccc2n1 (configuration not stated) |  | > 100 µM |  | > 100 µM |  | > 100 µM |  | > 100 µM |  | > 100 µM |  | > 100 µM |  | > 100 µM |  | > 100 µM |  | > 100 µM |  | > 100 µM
6 | c1c[nH]c(CN2CCOCC2)n1 |  | > 100 µM |  | > 100 µM |  | > 100 µM |  | > 100 µM |  | > 100 µM |  | > 100 µM |  | > 100 µM |  | > 100 µM |  | > 100 µM |  | > 100 µM
7 | CC(C)(C)C(=O)[CH-]C(=O)C(C)(C)C.CC(C)(C)C(=O)[CH-]C(=O)C(C)(C)C.CN(C)c1ccc([O-])cc1.CN(C)c1ccc([O-])cc1.[Ti+4] | > 100 µM | > 100 µM | > 100 µM | > 100 µM | > 100 µM | > 100 µM | 68.2 µM | > 100 µM | > 100 µM | > 100 µM | 55.8 µM | > 100 µM | > 100 µM | > 100 µM | > 100 µM | > 100 µM | > 100 µM | > 100 µM | > 100 µM | > 100 µM
8 | Cn1cc(C2=C(c3cn(C4CCN(Cc5ccccn5)CC4)c4ccccc34)C(=O)NC2=O)c2ccccc21 | 3.87 µM | > 100 µM | 3.08 µM | 47.5 µM | 4.73 µM | > 100 µM | 8.43 µM | > 91.1 µM | 4.9 µM | > 100 µM | 3.03 µM | > 100 µM | 3.03 µM | > 100 µM | 5.55 µM | > 100 µM | 2.94 µM | > 25.9 µM | 9.36 µM | > 100 µM
9 | CC(=O)c1ccc(O)c(CN(C2CCCCC2)C2CCCCC2)c1O |  | > 100 µM |  | > 100 µM |  | > 100 µM |  | > 100 µM |  | > 100 µM |  | > 100 µM |  | > 100 µM |  | > 100 µM |  | > 100 µM |  | > 100 µM
10 | O=C(O)[C@@H](Cc1ccc2ccccc2c1)NC(=O)n1c2ccccc2c2ccccc21 | 1.41 µM | > 100 µM | 4.19 µM | 43.3 µM | 11.9 µM | > 100 µM | 0.708 µM | 12.2 µM | 3.63 µM | 20 µM | 1.99 µM | 6.61 µM | 2.32 µM | 11.8 µM | 5.64 µM | 44.5 µM | 2.55 µM | 7.27 µM | 4.83 µM | 93.6 µM
11 | C=C1C[C@@H]2CC[C@@]34C[C@H]5O[C@H]6[C@@H](O3)[C@H]3O[C@H](CC[C@@H]3O[C@H]6[C@@H]5O4)CC(=O)C[C@@H]3[C@@H](OC)[C@@H](C[C@H](O)CN)O[C@H]3C[C@H]3O[C@@H](CC[C@@H]1O2)C[C@@H](C)C3=C | < 0.01 µM | > 100 µM | < 0.01 µM | > 100 µM | > 65.8 µM | > 100 µM | 0.0761 µM | > 100 µM | < 0.01 µM | 0.99 µM | < 0.01 µM | 0.0166 µM | < 0.01 µM | > 100 µM |  | > 100 µM | < 0.0135 µM | 1.11 µM | 0.158 µM | > 100 µM
12 | COc1ccc(C(=O)NCCN(C)C)c2nc3ccccc3nc12 |  | 5.72 µM |  | 11.8 µM |  | 13 µM |  | > 59.9 µM |  | 6.48 µM |  | 17.6 µM |  | 12.8 µM |  | > 63.2 µM |  | > 36.6 µM |  | > 100 µM
13 | O=C(N/N=C/c1ccccc1O)c1ccccc1 | 3.59 µM | > 100 µM | > 100 µM | > 100 µM | 3.47 µM | 37.1 µM | 0.339 µM | 1.83 µM | 1.47 µM | 10.9 µM | 3.19 µM | 66.8 µM | 0.309 µM | 5.19 µM | 5.14 µM | > 100 µM | 2.97 µM | > 100 µM | 2.08 µM | 54.2 µM
14 | C(=N\Nc1nnn(Cc2ccccc2)n1)/c1ccccc1 | 0.43 µM | > 100 µM | 1.02 µM | 6.28 µM |  | > 100 µM | 8.54 µM | > 100 µM | 6 µM | > 100 µM | 3.29 µM | 32.5 µM | 3.82 µM | > 73.3 µM | 3.29 µM | 34.7 µM | 2.02 µM | > 40.7 µM | 16.1 µM | > 100 µM
15 | O=c1c(F)cn(Cc2ccccc2CCl)c(=O)n1Cc1ccccc1CCl | 1.89 µM | > 100 µM | 1.54 µM | 3.05 µM |  | 2.44 µM | 2.09 µM | 4.44 µM | 1.23 µM | 2.78 µM | 2.06 µM | 4.73 µM | 1.11 µM | 2.84 µM | 5.88 µM | 15.1 µM | 1.65 µM | 3.44 µM | 1.58 µM | 3.04 µM
